Assay results as given in ChEMBL document CHEMBL3421530, “Azepinone-Containing Tetrapeptide Analogues of Melanotropin Lead to Selective hMC4R Agonists and hMC5R Antagonist” (ACS Med Chem Lett, 2015).

What was measured:
Melanocortin receptor 5 [1] = biological target: T1, Melanocortin receptor 5 (Homo sapiens, UniProt P33032); assay: Antagonist activity at human MC5 receptor expressed in HEK293 cells assessed as cAMP accumulation by luminescence counter; format: functional, cell-based
Melanocortin receptor 3 [2] = biological target: T2, Melanocortin receptor 3 (Homo sapiens, UniProt P41968); assay: Displacement of [125I]-NDP-alpha-MSH from human MC3 receptor expressed in HEK293 cells at 10 uM by gamma counting analysis; format: cell-based
T2 sequence (P41968 whole entry): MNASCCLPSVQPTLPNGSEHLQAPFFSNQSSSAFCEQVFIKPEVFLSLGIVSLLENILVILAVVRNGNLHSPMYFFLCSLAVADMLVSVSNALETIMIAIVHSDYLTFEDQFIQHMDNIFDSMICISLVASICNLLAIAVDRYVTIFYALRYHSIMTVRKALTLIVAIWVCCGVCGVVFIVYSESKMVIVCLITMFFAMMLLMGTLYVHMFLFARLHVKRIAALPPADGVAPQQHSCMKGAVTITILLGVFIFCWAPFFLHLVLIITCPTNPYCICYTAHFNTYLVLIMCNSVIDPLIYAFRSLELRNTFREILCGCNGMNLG

Melanocortin receptor 4 [3] = biological target: T3, Melanocortin receptor 4 (Homo sapiens, UniProt P32245); assay: Agonist activity at human MC4 receptor expressed in HEK293 cells assessed as cAMP accumulation at 10 uM by luminescence counter relative to MT-II; format: functional, cell-based
T3 sequence (P32245 whole entry): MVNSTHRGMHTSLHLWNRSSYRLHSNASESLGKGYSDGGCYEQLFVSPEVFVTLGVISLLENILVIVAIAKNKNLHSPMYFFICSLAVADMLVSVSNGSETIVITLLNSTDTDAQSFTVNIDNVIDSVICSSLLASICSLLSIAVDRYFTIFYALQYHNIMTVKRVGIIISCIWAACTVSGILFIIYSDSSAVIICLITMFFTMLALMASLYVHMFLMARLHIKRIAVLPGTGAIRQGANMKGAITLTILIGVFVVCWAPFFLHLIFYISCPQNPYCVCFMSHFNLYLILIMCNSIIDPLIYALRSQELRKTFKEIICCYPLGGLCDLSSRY

Melanocortin receptor 4 [4] = biological target: T3, Melanocortin receptor 4; assay: Agonist activity at human MC4 receptor expressed in HEK293 cells assessed as cAMP accumulation by luminescence counter; format: functional, cell-based
Melanocortin receptor 3 [5] = biological target: T2, Melanocortin receptor 3; assay: Activity at human MC3 receptor expressed in HEK293 cells assessed as cAMP accumulation by luminescence counter; format: functional, cell-based
Melanocortin receptor 5 [6] = biological target: T1, Melanocortin receptor 5; assay: Antagonist activity at human MC5 receptor expressed in HEK293 cells assessed as cAMP accumulation at 10 uM by luminescence counter relative to MT-II; format: functional, cell-based; design: scale not given: the % may be the effect or the level left
[7] = biological target: T4, Melanocyte-stimulating hormone receptor (Homo sapiens, UniProt Q01726); assay: Activity at human MC1 receptor expressed in HEK293 cells assessed as cAMP accumulation at 10 uM by luminescence counter relative to MT-II; format: functional, cell-based
Target sequence in this assay (Q01726 whole entry, looked up): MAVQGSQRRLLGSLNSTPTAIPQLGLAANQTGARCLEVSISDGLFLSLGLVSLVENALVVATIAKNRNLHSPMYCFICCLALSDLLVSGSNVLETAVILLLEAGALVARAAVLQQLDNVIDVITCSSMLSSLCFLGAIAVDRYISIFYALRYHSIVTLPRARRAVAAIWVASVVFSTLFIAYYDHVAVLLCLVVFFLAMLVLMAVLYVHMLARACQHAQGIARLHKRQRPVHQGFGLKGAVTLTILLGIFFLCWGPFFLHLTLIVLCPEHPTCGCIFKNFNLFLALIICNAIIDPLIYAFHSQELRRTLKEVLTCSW

Melanocortin receptor 3 [8] = biological target: T2, Melanocortin receptor 3; assay: Activity at human MC3 receptor expressed in HEK293 cells assessed as cAMP accumulation at 10 uM by luminescence counter relative to MT-II; format: functional, cell-based
[9] = biological target: T4, Melanocyte-stimulating hormone receptor; assay: Displacement of [125I]-NDP-alpha-MSH from human MC1 receptor expressed in HEK293 cells at 10 uM by gamma counting analysis; format: cell-based
Target sequence in this assay (Q01726 whole entry, looked up): as above

Melanocortin receptor 3 [10] = biological target: T2, Melanocortin receptor 3; assay: Displacement of [125I]-NDP-alpha-MSH from human MC3 receptor expressed in HEK293 cells by gamma counting analysis; format: cell-based
Melanocortin receptor 4 [11] = biological target: T3, Melanocortin receptor 4; assay: Displacement of [125I]-NDP-alpha-MSH from human MC4 receptor expressed in HEK293 cells by gamma counting analysis; format: cell-based
[12] = biological target: T4, Melanocyte-stimulating hormone receptor; assay: Displacement of [125I]-NDP-alpha-MSH from human MC1 receptor expressed in HEK293 cells by gamma counting analysis; format: cell-based
Target sequence in this assay (Q01726 whole entry): as the sequence (Q01726 whole entry, looked up) above

Melanocortin receptor 5 [13] = biological target: T1, Melanocortin receptor 5; assay: Displacement of [125I]-NDP-alpha-MSH from human MC5 receptor expressed in HEK293 cells by gamma counting analysis; format: cell-based
Melanocortin receptor 5 [14] = biological target: T1, Melanocortin receptor 5; assay: Displacement of [125I]-NDP-alpha-MSH from human MC5 receptor expressed in HEK293 cells at 10 uM by gamma counting analysis; format: cell-based
Melanocortin receptor 4 [15] = biological target: T3, Melanocortin receptor 4; assay: Displacement of [125I]-NDP-alpha-MSH from human MC4 receptor expressed in HEK293 cells at 10 uM by gamma counting analysis; format: cell-based
[16] = biological target: T4, Melanocyte-stimulating hormone receptor; assay: Activity at human MC1 receptor expressed in HEK293 cells assessed as cAMP accumulation by luminescence counter; format: functional, cell-based
Target sequence in this assay (Q01726 whole entry): as the sequence (Q01726 whole entry, looked up) above

[17] = Retention time of the compound; format: physicochemical

T1 sequence (P33032 whole entry): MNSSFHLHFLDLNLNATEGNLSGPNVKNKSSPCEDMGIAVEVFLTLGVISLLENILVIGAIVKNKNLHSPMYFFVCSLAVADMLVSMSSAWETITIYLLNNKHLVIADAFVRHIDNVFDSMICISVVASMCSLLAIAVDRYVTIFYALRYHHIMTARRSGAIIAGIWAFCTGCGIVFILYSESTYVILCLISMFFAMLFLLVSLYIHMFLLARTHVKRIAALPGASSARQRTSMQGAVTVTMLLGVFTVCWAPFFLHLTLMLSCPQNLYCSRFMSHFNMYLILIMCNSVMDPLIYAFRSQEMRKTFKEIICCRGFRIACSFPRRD

Row | SMILES | EC50 (Melanocortin receptor 5 [1]; hek293) | %max (Melanocortin receptor 3 [2]) [%] | Activity (Melanocortin receptor 4 [3]) [%] | EC50 (Melanocortin receptor 4 [4]) [nM] | EC50 (Melanocortin receptor 3 [5]; read-out: EC50) [nM] | Activity (Melanocortin receptor 5 [6]) [%] | Activity [7] [%] | Activity (Melanocortin receptor 3 [8]) [%] | %max [9] [%] | IC50 (Melanocortin receptor 3 [10]; read-out: IC50) [nM] | IC50 (Melanocortin receptor 4 [11]) [nM] | IC50 [12] [nM] | IC50 (Melanocortin receptor 5 [13]) [nM] | %max (Melanocortin receptor 5 [14]) [%] | %max (Melanocortin receptor 4 [15]) [%] | EC50 ([16]; read-out: EC50) [nM] | Retention_time [17] [min] | further results
1 | CC(=O)N[C@H]1Cc2c([nH]c3ccccc23)CN([C@H](Cc2ccc(Br)cc2)C(=O)N[C@@H](CCCNC(=N)N)C(=O)N[C@@H](Cc2c[nH]c3ccccc23)C(N)=O)C1=O | Not Active | 100 | 80 | 0.3 | 2440 | 0 | 100 | 50 | 80 | 100 | 200 | 300 | 70.3 | 100 | 100 | 700 | 14.85 | 
2 | CC(=O)N[C@H]1Cc2c([nH]c3ccccc23)CN([C@H](Cc2ccccc2)C(=O)N[C@@H](CCCNC(=N)N)C(=O)N[C@@H](Cc2c[nH]c3ccccc23)C(N)=O)C1=O | Not Active |  | 51 | 0.3 | 52 | 0 | 0 | 20 | 50 |  | 447 | 1350 | 636 | 80 | 50 |  | 13.05 | IC50 (Melanocortin receptor 3 [10]; hek293): Not Active; EC50 ([16]; hek293): Not Active
3 | CC(=O)N[C@H]1Cc2c([nH]c3ccccc23)CN([C@H](Cc2ccc(F)cc2)C(=O)N[C@@H](CCCNC(=N)N)C(=O)N[C@@H](Cc2c[nH]c3ccccc23)C(N)=O)C1=O |  | 50 | 100 | 13 |  | 50 | 50 | 0 | 40 | 5000 | 6.5 | 258 | 167 | 80 | 80 | 226 | 13.94 | EC50 (Melanocortin receptor 5 [1]; read-out: EC50): 4110 nM; EC50 (Melanocortin receptor 3 [5]; hek293): Not Active

Further lines, with some results ahead:

Row | EC50 (Melanocortin receptor 5 [1]; hek293) | %max (Melanocortin receptor 3 [2]) [%] | Activity (Melanocortin receptor 4 [3]) [%] | EC50 (Melanocortin receptor 4 [4]) [nM] | EC50 (Melanocortin receptor 3 [5]; read-out: EC50) [nM] | Activity (Melanocortin receptor 5 [6]) [%] | Activity [7] [%] | Activity (Melanocortin receptor 3 [8]) [%] | %max [9] [%] | IC50 (Melanocortin receptor 3 [10]; read-out: IC50) [nM] | IC50 (Melanocortin receptor 4 [11]) [nM] | IC50 [12] [nM] | IC50 (Melanocortin receptor 5 [13]) [nM] | %max (Melanocortin receptor 5 [14]) [%] | %max (Melanocortin receptor 4 [15]) [%] | EC50 ([16]; read-out: EC50) [nM] | Retention_time [17] [min] | SMILES | further results
4 | Not Active | 55 | 80 | 203 | 55 | 0 | 100 | 20 | 60 | 1000 | 200 | 4540 | 137 | 70 | 80 | 750 | 10.43 | CC(=O)N[C@H]1Cn2nncc2CN([C@H](Cc2ccccc2)C(=O)N[C@@H](CCCNC(=N)N)C(=O)N[C@@H](Cc2c[nH]c3ccccc23)C(N)=O)C1=O | 
5 | Not Active | 59 | 80 | 227 | 59 | 0 | 70 | 40 | 80 | > 2000 | 220 | 594 | 37.3 | 75 | 80 | 1000 | 13.35 | CC(=O)N[C@H]1Cc2ccccc2CN([C@H](Cc2ccccc2)C(=O)N[C@@H](CCCNC(=N)N)C(=O)N[C@@H](Cc2c[nH]c3ccccc23)C(N)=O)C1=O | 
